Results taken from PMC8341910, “Structural and biophysical insights into the mode of covalent binding of rationally designed potent BMX inhibitors” (RSC Chemical Biology, 2020).
Where “and” joins values, the source holds several entries; their conditions need not be identical. Identical values can stand only once. Like-named read-outs stand apart in the source and are kept apart here.

How the values were obtained:
[1] = target: T1, wild-type BMX in PC3 cells (Homo sapiens, UniProt P51813); assay: BMX degradation assay in PC3 cells (Western blot); type: cell-based; conditions: 10 μM; 24 h and 72 h; band intensity normalized to α-Tubulin
T1 construct: endogenous in cells; host or cells: PC3 prostate cancer cells (wild-type, untransfected)
Experimental: The cell proliferation depends on BMX kinase activity that was used to monitor the cellular activity of the compounds (IC50). […].  Fig. 5 (a) Intracellular target engagement in HEK293 cells transiently transfected with BMX expressing NanoLuc®-BMX fusion vector with Promega's NanoBRET™ TE Intracellular Kinase Assay. […] Band intensity was measured using ImageJ and normalized with α-Tubulin band intensity. […] Data are mean ± standard deviation obtained from at least three independent measurements (n = 3). See ESI ^† for additional data and analysis. […] | page 12: […]
degradation assay. Protein band intensity normalized with α-Tubulin band intensity and quantified using ImageJ. Data was obtained from at least three independent measurements […]
concentration against PC3 cells, plated on 6-well plates, a day after attachment. DMSO was used as a control vehicle. At 24 h and 72 h of incubation, cells were washed in 1X PBS and lysed in 100 µL RIPA Buffer (in house) supplemented with EDTA-free Protease Inhibitor Cocktail (Merk) and DNase I (Merk). The lysis procedure was performed by re-suspending cells continuously, followed by a incubation of 30 min on ice. BMX antibody (Abcam) and tubulin antibody (Cell signaling Technology) were used in the Western blot. Band intensity […]

CAOV3 = assay: Multi cell line growth assay (CellTiter-Glo, 72 h); type: cell-based, human; conditions: Homo sapiens, Caov-3, Ovary, ND = no growth inhibition observed
PC3 = assay: Multi cell line growth assay (CellTiter-Glo, 72 h); type: cell-based, human; conditions: Homo sapiens, PC-3, Prostate, ND = no growth inhibition observed
in vitro = conditions: PAMPA
Jurkat = assay: Multi cell line growth assay (CellTiter-Glo, 72 h); type: cell-based, human; conditions: Homo sapiens, Jurkat, Blood, ND = no growth inhibition observed
BMX = target: T2, BMX (Homo sapiens, UniProt P51813); assay: BMX biochemical activity assay (HTRF, phosphorylation of a biotinylated peptide)
T2 sequence (P51813 1-675): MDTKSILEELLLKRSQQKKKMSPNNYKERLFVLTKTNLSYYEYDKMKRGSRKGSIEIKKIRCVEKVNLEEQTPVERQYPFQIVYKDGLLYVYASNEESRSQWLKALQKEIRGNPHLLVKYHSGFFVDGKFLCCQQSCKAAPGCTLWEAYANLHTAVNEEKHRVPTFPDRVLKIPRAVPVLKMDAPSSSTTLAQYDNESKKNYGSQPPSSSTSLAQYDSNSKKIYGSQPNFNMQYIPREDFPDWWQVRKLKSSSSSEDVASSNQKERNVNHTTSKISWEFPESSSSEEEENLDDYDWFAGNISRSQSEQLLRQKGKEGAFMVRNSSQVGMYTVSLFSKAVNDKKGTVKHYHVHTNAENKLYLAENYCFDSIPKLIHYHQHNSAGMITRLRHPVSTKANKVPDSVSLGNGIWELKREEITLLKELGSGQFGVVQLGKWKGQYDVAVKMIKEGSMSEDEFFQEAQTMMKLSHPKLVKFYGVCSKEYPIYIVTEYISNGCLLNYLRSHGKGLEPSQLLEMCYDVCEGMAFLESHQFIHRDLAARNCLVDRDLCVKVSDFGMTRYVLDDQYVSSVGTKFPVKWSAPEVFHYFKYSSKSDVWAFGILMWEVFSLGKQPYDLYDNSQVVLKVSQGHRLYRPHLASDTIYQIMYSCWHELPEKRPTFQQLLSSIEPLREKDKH

LNCaP = assay: Multi cell line growth assay (CellTiter-Glo, 72 h); type: cell-based, human; conditions: Homo sapiens, LNCaP, Prostate, ND = no growth inhibition observed within the concentrations tested
LNCaP cells = assay: LNCaP cell growth assay (CellTiter-Glo, 96 h); type: cell-based; conditions: Homo sapiens, read-out: GI50 LNCaP
Experimental: (§1) GI50 values are reported in μM and are the mean of three individual experiments performed in triplicate. N.d., non-determined, no growth inhibition observed within the concentrations tested.
(§2) Cellular activity Assay: LNCaP and PC-3 Cell Growth Assay
(§3) Cells were seeded in white, opaque-bottom 96-well plates at 5000 cells/well (LNCaP) or 2000 cells/well (PC-3) in a total volume of 100 µL of culture media.
(§4) fold) in 100 µL media were added to the cells 24 hours later. After 96 hours incubation cellular viability was assessed by CellTiter-Glo® (Promega) according to the manufacturer’s instructions. The values were normalized to vehicle and IC50 was calculated using GraphPad

[2] = target: T3, recombinant human BMX protein (hBMX) (Homo sapiens, UniProt P51813); assay: Differential scanning fluorimetry (DSF); type: binding; conditions: 100 μM compound
T3 construct: Crystallization, data collection, and structure determination of BMX catalytic domain in; made in house; host or cells: Sf-9 insect cells

[3] = pH 6.8
PC3 cells = assay: PC-3 cell growth assay (CellTiter-Glo, 96 h); type: cell-based; conditions: Homo sapiens, PC-3, 96 h, read-out: GI50 PC3
Experimental: as §1, §2, §3, §4

SK-N-MC = assay: Multi cell line growth assay (CellTiter-Glo, 72 h); type: cell-based, human; conditions: Homo sapiens, SK-N-MC, Brain, ND = no growth inhibition observed
22 RV1 = assay: Multi cell line growth assay (CellTiter-Glo, 72 h); type: cell-based, human; conditions: Homo sapiens, 22Rv1, Prostate, ND = no growth inhibition observed
RS4(11) = assay: Multi cell line growth assay (CellTiter-Glo, 72 h); type: cell-based, human; conditions: Homo sapiens, RS4-11, Lung (so in the source), ND = no growth inhibition observed
MDA-MB-231 = assay: Multi cell line growth assay (CellTiter-Glo, 72 h); type: cell-based; conditions: Homo sapiens, Breast, ND = no growth inhibition observed
DAUDI = assay: Multi cell line growth assay (CellTiter-Glo, 72 h); type: cell-based, human; conditions: Homo sapiens, Daudi, Lymphoid, ND = no growth inhibition observed
[4] = target: NanoLuc®-BMX fusion vector in HEK293 cells (Homo sapiens, UniProt P51813); assay: NanoBRET TE intracellular kinase assay; type: cell-based; conditions: HEK293 transiently transfected with BMX; 1 h; duplicate, mean ± S.D.; read-out: intracellular target engagement IC50
Experimental: Target Engagement Intracellular Kinase Assay:
In-cell target engagement was performed at the Reaction Biology Corporation (USA) using the NanoBRETTM technology. Very briefly, HEK296 cells, purchased from ATCC, were
with the reference compound Dasatinib, for 1 hour of incubation. Compounds were diluted 10 times with 3-fold dilution, starting at 1 µM. Curve fits were performed only when % NanoBret
determined using the GraphPad Prism 8 (USA).

U-87MG = assay: Multi cell line growth assay (CellTiter-Glo, 72 h); type: cell-based; conditions: Homo sapiens, Brain, ND = no growth inhibition observed
Kasumi = assay: Multi cell line growth assay (CellTiter-Glo, 72 h); type: cell-based, human; conditions: Homo sapiens, Blood, ND = no growth inhibition observed
His6-hsBMX = target: T4, His6-hsBMX (Homo sapiens, UniProt P51813); assay: Surface plasmon resonance (SPR); type: binding; conditions: from kinetic constants
T4 construct: Crystallization, data collection, and structure determination of BMX catalytic domain in; made in house; host or cells: Sf-9 insect cells
Excerpt: response upon compound injection (t=0s), or upon washing (t=220s), on immobilized His6-
hsBMX surfaces. Compound concentrations injected on already saturated surfaces were not
included in the 1:1 Langmuir fitting model. X-axis: time (s); y-axis: response (arbitrary units).
Inset plots [x-axis: compound concentration (M); y-axis: response (arbitrary units)] show the
steady-state affinity (KDss) fit for the interactions wherein equilibrium was reached.
Surface Plasmon Resonance:
The kinetic and affinity parameters of protein-compound interaction were evaluated by SPR.
Experiments were carried out in a Biacore 4000 instrument (Biacore AB, GE Healthcare Life
Sciences, Uppsala, Sweden) at 25 °C. His6-BMX protein was diluted to 10 µg/mL in sodium
acetate pH 5.5, in the presence of 5 µM staurosporine and immobilized onto CM5 (Series S)
sensor chips, using the standard amine coupling procedure. Prior to immobilization, the
carboxymethylated surface of the chip was activated with 400 mM 1-ethyl-3-(3-
dimethylaminopropyl)-carbodiimide and 100 mM N-hydroxysuccinimide for 10 min. HBS-N
(10 mM HEPES pH7.4, 150mM NaCl) was used as the background buffer. Protein was coupled
to the surface after 2 to 10 min injection times, at a flow rate of 10 µL/min, in order to reach
1500 to 3500 response units (RU). The remaining activated carboxymethylated groups were
blocked with a 7 min injection of 1 M ethanolamine pH 8.5. Compounds were pre-diluted in
DMSO to 50x the desired highest tested concentration and diluted afterwards in running buffer
(20 mM HEPES pH 7.4, 150 mM NaCl, 1 mM DTT, 0.1 mM EGTA, 0.05 % (v/v) TWEEN-
20, 5 mM MgCl2) in order to reach 2% of DMSO concentration. A DMSO solvent correction
(1% - 3%) was performed to account for variations in bulk signal and to achieve high-quality
data. Each compound was injected over immobilized His6-BMX for 220 s (30 µL min-1;
association phase) followed by 600 to 2000 s of buffer flow (dissociation phase) at a maximum
five times in 2-fold dilution series. All sensorgrams were processed by first subtracting the
binding response recorded from the control surface (reference spot), followed by subtracting
the buffer blank injection from the reaction spot. All datasets were fit to a simple 1:1 Langmuir
interaction model with the provided Biacore 4000 Evaluation software, to determine kinetic rate constants (kon, koff) or steady-state affinity (KDss).

[5] = Dynamic light scattering, colloidal aggregation; type: physicochemical; conditions: deionized and filtered water (0.1% DMSO), kinetic from dmso stock, measured at 10 µM, 1 µM and 100 nM, 25 °C, read-out: DLS maximum soluble concentration at which no aggregates are observed
DU145 = assay: Multi cell line growth assay (CellTiter-Glo, 72 h); type: cell-based; conditions: Homo sapiens, DU-145, Prostate, ND = no growth inhibition observed

## C=CC(=O)Nc1cc(-n2c(=O)ccc3cnc4ccc(-c5ccc(NS(C)(=O)=O)cc5)cc4c32)ccc1C [BMX-IN-1, reference compound]
[1]
  degradation of BMX protein: induce degradation of wild-type BMX in PC3 cells
CAOV3
  GI50: 7680 ± 130 nM
PC3
  GI50: 11000 ± 1130 nM
In vitro; pH 6.8, PAMPA permeability
  Papp: 8.9 ×10⁻⁶ cm/s
In vitro; pH 6.8, PAMPA/Pe effective permeability
  Papp: 8.9 ± 0.8 ×10⁻⁶ cm/s
Jurkat
  GI50: 5990 nM
BMX; Experiment 1 of Fig. S3, control JS9A (in-house BMX-IN-1), read-out: BMX IC50
  IC50: 360 ± 24 nM
BMX; Experiment 2 of Fig. S3, control commercial BMX-IN-1, read-out: BMX IC50
  IC50: 55 ± 35 nM
BMX; Experiment 3 of Fig. S3, control commercial BMX-IN-1, read-out: BMX IC50
  IC50: 230 ± 34.5 nM
BMX; Experiment 4 of Fig. S3 = Fig. 1b, duplicate, mean ± S.D., read-out: BMX inhibition IC50
  IC50: 50.2 nM and 50 nM
LNCaP
  GI50: 1810 ± 50 nM
LNCaP cells
  GI50: 1700 nM
[2]; versus apo-BMX, read-out: ΔTm
  ΔTm at 100 µM: 8.04 ± 0.32 °C
[2]; apo-BMX Tm 51.8-52.2 °C
  Average Tm of BMX with compound: 60.17±0.32 °C
[3]
  PAMPA/%R membrane retention: 55±8%
PC3 cells
  GI50: 11500 ± 2200 nM
SK-N-MC
  GI50: 2360 nM
22 RV1
  GI50: 2070 ± 60 nM
RS4(11)
  GI50: 1180 ± 60 nM
MDA-MB-231
  GI50: 23600 ± 480 nM
DAUDI
  GI50: 1680 ± 70 nM
[4]
  IC50: 495 nM
U-87MG
  GI50: 5330 ± 190 nM
Kasumi
  GI50: 3130 ± 60 nM
His6-hsBMX
  Kd: 69 nM
[5]
  solubility: ≥ 10 µM
DU145
  GI50: 17700 nM
